Measured values published in patent US20200032271A1, “COMBINATION THERAPY WITH LIPOSOMAL ANTISENSE OLIGONUCLEOTIDES” (Bio-Path Holdings, Inc., priority 2016, published 2020).
Marks after values point to notes of the source that are not given here. [PEt] = P-ethoxy (ethyl phosphotriester) internucleoside linkage

Assay: Adverse events in study 2003-0578 (NCI CTCAE grading)
[1] = MDS at enrollment (n = 4), all treatment groups

BP1001: liposome-incorporated P-ethoxy antisense oligodeoxynucleotide (5′-ATATTTGGCGATGGCTTC-3′, SEQ ID NO: 1) specific to grb2 mRNA, in neutral DOPC liposomes (DNA, all [PEt], methylation of C not given here; incorporated in neutral DOPC liposomes)
disorders (2/2): Hepatobiliary disorders ≥Grade 3, total events (all patients (N = 39)) | Hepatobiliary disorders ≥Grade 3, total patients (all patients (N = 39)) | Vascular disorders ≥Grade 3, total events (all patients (N = 39)) | Vascular disorders ≥Grade 3, total patients (all patients (N = 39))
0: Hyponatremia ≥Grade 3, number of patients [1] | Hypotension ≥Grade 3, number of patients [1] | Hypovolemia ≥Grade 3, number of patients [1] | Hypoxia ≥Grade 3, number of patients [1] | Investigations ≥Grade 3, number of patients [1] | Leukocytosis ≥Grade 3, number of patients [1] | Metabolism and nutritional disorders ≥Grade 3, number of patients [1] | Multi-organ failure ≥Grade 3, number of patients [1] | Musculoskeletal and connective tissue disorders ≥Grade 3, number of patients [1] | Neoplasms benign, malignant, and unspecified (incl. cysts and polyps) ≥Grade 3, number of patients [1] | Penile Pain ≥Grade 3, number of patients [1] | Platelet count decreased ≥Grade 3, number of patients [1] | Pleural Effusions ≥Grade 3, number of patients [1] | Pneumonia ≥Grade 3, number of patients [1] | Psychiatric disorders ≥Grade 3, number of patients [1] | Renal and urinary disorders ≥Grade 3, number of patients [1] | Reproductive system and breast disorders ≥Grade 3, number of patients [1] | Respiratory distress ≥Grade 3, number of patients [1] | Respiratory failure ≥Grade 3, number of patients [1] | Respiratory, thoracic, and mediastinal disorders ≥Grade 3, number of patients [1] | Tumor lysis syndrome ≥Grade 3, number of patients [1] | Vascular disorders ≥Grade 3, number of patients [1] | Abdominal Pain ≥Grade 3, number of patients (monotherapy 5 mg/m^2 (n = 13)) | Back Pain ≥Grade 3, number of patients (monotherapy 5 mg/m^2 (n = 13)) | Cataract ≥Grade 3, number of patients (monotherapy 5 mg/m^2 (n = 13)) | Dyspnea ≥Grade 3, number of patients (monotherapy 5 mg/m^2 (n = 13)) | Extremity Lower Edema ≥Grade 3, number of patients (monotherapy 5 mg/m^2 (n = 13)) | Eye disorders ≥Grade 3, number of patients (monotherapy 5 mg/m^2 (n = 13)) | Gastrointestinal disorders ≥Grade 3, number of patients (monotherapy 5 mg/m^2 (n = 13)) | Hallucinations ≥Grade 3, number of patients (monotherapy 5 mg/m^2 (n = 13)) | Hypovolemia ≥Grade 3, number of patients (monotherapy 5 mg/m^2 (n = 13)) | Musculoskeletal and connective tissue disorders ≥Grade 3, number of patients (monotherapy 5 mg/m^2 (n = 13)) | Neoplasms benign, malignant, and unspecified (incl. cysts and polyps) ≥Grade 3, number of patients (monotherapy 5 mg/m^2 (n = 13)) | Penile Pain ≥Grade 3, number of patients (monotherapy 5 mg/m^2 (n = 13)) | Pneumonia ≥Grade 3, number of patients (monotherapy 5 mg/m^2 (n = 13)) | Psychiatric disorders ≥Grade 3, number of patients (monotherapy 5 mg/m^2 (n = 13)) | Reproductive system and breast disorders ≥Grade 3, number of patients (monotherapy 5 mg/m^2 (n = 13)) | Abdominal Pain ≥Grade 3, number of patients (monotherapy 10 mg/m^2 (n = 6)) | Acute kidney injury ≥Grade 3, number of patients (monotherapy 10 mg/m^2 (n = 6)) | Asthenia ≥Grade 3, number of patients (monotherapy 10 mg/m^2 (n = 6)) | Back Pain ≥Grade 3, number of patients (monotherapy 10 mg/m^2 (n = 6)) | Cardiac disorders ≥Grade 3, number of patients (monotherapy 10 mg/m^2 (n = 6)) | Cataract ≥Grade 3, number of patients (monotherapy 10 mg/m^2 (n = 6)) | Dyspnea ≥Grade 3, number of patients (monotherapy 10 mg/m^2 (n = 6)) | Extremity Lower Edema ≥Grade 3, number of patients (monotherapy 10 mg/m^2 (n = 6)) | Eye disorders ≥Grade 3, number of patients (monotherapy 10 mg/m^2 (n = 6)) | Gastrointestinal disorders ≥Grade 3, number of patients (monotherapy 10 mg/m^2 (n = 6)) | Hallucinations ≥Grade 3, number of patients (monotherapy 10 mg/m^2 (n = 6)) | Heart failure ≥Grade 3, number of patients (monotherapy 10 mg/m^2 (n = 6)) | Hypocalcemia ≥Grade 3, number of patients (monotherapy 10 mg/m^2 (n = 6)) | Hypoglycemia ≥Grade 3, number of patients (monotherapy 10 mg/m^2 (n = 6)) | Hyponatremia ≥Grade 3, number of patients (monotherapy 10 mg/m^2 (n = 6)) | Hypotension ≥Grade 3, number of patients (monotherapy 10 mg/m^2 (n = 6))
disorders (4/4): Renal and urinary disorders ≥Grade 3, total events (all patients (N = 39)) | Renal and urinary disorders ≥Grade 3, total patients (all patients (N = 39))
2: Investigations ≥Grade 3, total patients (all patients (N = 39)) | Acidosis ≥Grade 3, number of patients (monotherapy 5 mg/m^2 (n = 13)) | Febrile neutropenia ≥Grade 3, number of patients (monotherapy 5 mg/m^2 (n = 13)) | Hypoglycemia ≥Grade 3, number of patients (monotherapy 5 mg/m^2 (n = 13)) | Hypotension ≥Grade 3, number of patients (monotherapy 5 mg/m^2 (n = 13)) | Multi-organ failure ≥Grade 3, number of patients (monotherapy 5 mg/m^2 (n = 13)) | Respiratory failure ≥Grade 3, number of patients (monotherapy 5 mg/m^2 (n = 13)) | Respiratory, thoracic, and mediastinal disorders ≥Grade 3, number of patients (monotherapy 5 mg/m^2 (n = 13)) | Vascular disorders ≥Grade 3, number of patients (monotherapy 5 mg/m^2 (n = 13)) | Blood and lymphatic system disorders ≥Grade 3, number of patients (monotherapy 10 mg/m^2 (n = 6))
12: Blood and lymphatic system disorders ≥Grade 3, total events (all patients (N = 39)) | Metabolism and nutritional disorders ≥Grade 3, total patients (all patients (N = 39)) | Metabolism and nutritional disorders ≥Grade 3, number of patients (monotherapy 5 mg/m^2 (n = 13))
91: Patients with AEs ≥Grade 3, total events (all patients (N = 39))
polyps) (2/2): Neoplasms benign, malignant, and unspecified (incl. cysts and polyps) ≥Grade 3, total events (all patients (N = 39)) | Neoplasms benign, malignant, and unspecified (incl. cysts and polyps) ≥Grade 3, total patients (all patients (N = 39))
10: AML progression, number of patients (monotherapy 5 mg/m^2 (n = 13)) | Patients with AEs ≥Grade 3, number of patients (monotherapy 5 mg/m^2 (n = 13))
disorders (7/7): Respiratory, thoracic, and mediastinal disorders ≥Grade 3, total events (all patients (N = 39)) | Respiratory, thoracic, and mediastinal disorders ≥Grade 3, total patients (all patients (N = 39))
(5/5): General disorders and administration site conditions ≥Grade 3, total events (all patients (N = 39)) | General disorders and administration site conditions ≥Grade 3, total patients (all patients (N = 39))
1: Patients with AEs ≥Grade 3, number of patients [1] | Asthenia ≥Grade 3, number of patients (monotherapy 5 mg/m^2 (n = 13)) | Hepatic failure ≥Grade 3, number of patients (monotherapy 5 mg/m^2 (n = 13)) | Hepatobiliary disorders ≥Grade 3, number of patients (monotherapy 5 mg/m^2 (n = 13)) | Hypocalcemia ≥Grade 3, number of patients (monotherapy 5 mg/m^2 (n = 13)) | Hypokalemia ≥Grade 3, number of patients (monotherapy 5 mg/m^2 (n = 13)) | Hyponatremia ≥Grade 3, number of patients (monotherapy 5 mg/m^2 (n = 13)) | Hypoxia ≥Grade 3, number of patients (monotherapy 5 mg/m^2 (n = 13)) | Investigations ≥Grade 3, number of patients (monotherapy 5 mg/m^2 (n = 13)) | Platelet count decreased ≥Grade 3, number of patients (monotherapy 5 mg/m^2 (n = 13)) | Respiratory distress ≥Grade 3, number of patients (monotherapy 5 mg/m^2 (n = 13)) | Acidosis ≥Grade 3, number of patients (monotherapy 10 mg/m^2 (n = 6)) | General disorders and administration site conditions ≥Grade 3, number of patients (monotherapy 10 mg/m^2 (n = 6)) | Hepatic failure ≥Grade 3, number of patients (monotherapy 10 mg/m^2 (n = 6)) | Hepatobiliary disorders ≥Grade 3, number of patients (monotherapy 10 mg/m^2 (n = 6)) | Hypokalemia ≥Grade 3, number of patients (monotherapy 10 mg/m^2 (n = 6))
5: Blood and lymphatic system disorders ≥Grade 3, number of patients (monotherapy 5 mg/m^2 (n = 13))
28: Patients with AEs ≥Grade 3, total patients (all patients (N = 39))
1^a: Febrile neutropenia ≥Grade 3, number of patients (monotherapy 10 mg/m^2 (n = 6))
11: Blood and lymphatic system disorders ≥Grade 3, total patients (all patients (N = 39))
4: AML progression, number of patients (monotherapy 10 mg/m^2 (n = 6))
19: Metabolism and nutritional disorders ≥Grade 3, total events (all patients (N = 39))
disorders (3/3): Cardiac disorders ≥Grade 3, total events (all patients (N = 39)) | Cardiac disorders ≥Grade 3, total patients (all patients (N = 39))
3: Investigations ≥Grade 3, total events (all patients (N = 39)) | Acute kidney injury ≥Grade 3, number of patients (monotherapy 5 mg/m^2 (n = 13)) | Cardiac disorders ≥Grade 3, number of patients (monotherapy 5 mg/m^2 (n = 13)) | General disorders and administration site conditions ≥Grade 3, number of patients (monotherapy 5 mg/m^2 (n = 13)) | Heart failure ≥Grade 3, number of patients (monotherapy 5 mg/m^2 (n = 13)) | Leukocytosis ≥Grade 3, number of patients (monotherapy 5 mg/m^2 (n = 13)) | Renal and urinary disorders ≥Grade 3, number of patients (monotherapy 5 mg/m^2 (n = 13)) | Tumor lysis syndrome ≥Grade 3, number of patients (monotherapy 5 mg/m^2 (n = 13))
